In US9113629B2, “4-amino-6-(4-substituted-phenyl)-picolinates and 6-amino-2-(4-substituted-phenyl)-pyrimidine-4-carboxylates and their use as herbicides” (DOW AGROSCIENCES LLC, priority 2013, dated 2015):
Like-named read-outs stand apart in the source and are kept apart here.

How the values were obtained:
[1] = test system: Key Grass and Sedge Weeds as well as Grass Crops; assay: Post-emergent Test II herbicidal activity (Table 6); format: in vivo; conditions: post-emergence, 336 h; for pest or weed control at 70 g/ha: 70 g ai/ha; for pest or weed control at 140 g/ha: 140 g ai/ha
In short: (§1)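 Plants grown in Metro-Mix 360 (pH 6.0–6.8) in a greenhouse (~15 h photoperiod, 23–29 °C day) to first or second true leaf stage, then sprayed with compound in acetone/DMSO/aqueous crop-oil-surfactant carrier at 187 L/ha by track sprayer. Injury visually scored 0–100% versus untreated plants after 14 d.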

[2] = test system: Key Broadleaf Weed and Crop Species; assay: Post-emergent Test II herbicidal activity (Table 5); format: in vivo; conditions: post-emergence, 336 h, 14 days after application; for pest or weed control at 70 g/ha: application rate 70 g ai/ha; for pest or weed control at 140 g/ha: application rate 140 g ai/ha
In short: as §1

[3] = CYPES: yellow nutsedge (Cyperus esculentus), read-out: Visual Growth Reduction (%) 14 Days After Application, CYPES
[4] = DIGSA: crabgrass (Digitaria sanguinalis), read-out: Visual Growth Reduction (%) 14 Days After Application, DIGSA
[5] = ECHCG: barnyardgrass (Echinochloa crus-galli), read-out: Visual Growth Reduction (%) 14 Days After Application, ECHCG
[6] = ORYSA: rice (Oryza sativa), crop, read-out: Visual Growth Reduction (%) 14 Days After Application, ORYSA
[7] = SORVU: grain sorghum (Sorghum vulgare), read-out: Visual Growth Reduction (%) 14 Days After Application, SORVU
[8] = TRZSS (wheat, Triticum aestivum), crop, read-out: Visual Growth Reduction (%) 14 Days After Application, TRZSS
[9] = ZEAMX: maize, corn (Zea mays), crop, read-out: Visual Growth Reduction (%) 14 Days After Application, ZEAMX
[10] = ABUTH: velvetleaf (Abutilon theophrasti), read-out: Visual Growth Reduction (%) 14 Days After Application, ABUTH
[11] = AMARE: redroot pigweed (Amaranthus retroflexus), read-out: Visual Growth Reduction (%) 14 Days After Application, AMARE
[12] = BRSNN: oilseed-rape, canola (Brassica napus), read-out: Visual Growth Reduction (%) 14 Days After Application, BRSNN
[13] = CHEAL: lambsquarters (Chenopodium album), read-out: Visual Growth Reduction (%) 14 Days After Application, CHEAL
[14] = EPHHL: wild poinsettia (Euphorbia heterophylla), read-out: Visual Growth Reduction (%) 14 Days After Application, EPHHL
[15] = HELAN: sunflower (Helianthus annuus), read-out: Visual Growth Reduction (%) 14 Days After Application, HELAN
[16] = VIOTR: wild pansy (Viola tricolor), read-out: Visual Growth Reduction (%) 14 Days After Application, VIOTR

Compound: COC(=O)c1nc(-c2ccc(Br)c(F)c2F)nc(N)c1OC [Compound 122, methyl 6-amino-2-(4-bromo-2,3-difluorophenyl)-5-methoxypyrimidine-4-carboxylate]
- pest or weed control at 70 g/ha [1, 3]: 95 to 100%
- pest or weed control at 140 g/ha [1, 3]: 95 to 100%
- pest or weed control at 70 g/ha [1, 4]: 45 to 59%
- pest or weed control at 140 g/ha [1, 4]: 45 to 59%
- pest or weed control at 70 g/ha [1, 5]: 85 to 94%
- pest or weed control at 140 g/ha [1, 5]: 95 to 100%
- pest or weed control at 70 g/ha [1, 6]: 0 to 29%
- pest or weed control at 140 g/ha [1, 6]: 0 to 29%
- pest or weed control at 140 g/ha ([1]; SETFA: giant foxtail (Setaria faberi), read-out: Visual Growth Reduction (%) 14 Days After Application, SETFA): 95 to 100%
- pest or weed control at 70 g/ha [1, 7]: 95 to 100%
- pest or weed control at 140 g/ha [1, 7]: 85 to 94%
- pest or weed control at 70 g/ha [1, 8]: 45 to 59%
- pest or weed control at 140 g/ha [1, 8]: 45 to 59%
- pest or weed control at 70 g/ha [1, 9]: 95 to 100%
- pest or weed control at 140 g/ha [1, 9]: 95 to 100%
- melting point: 171 to 172 °C
- pest or weed control at 70 g/ha [2, 10]: 95 to 100%
- pest or weed control at 140 g/ha [2, 10]: 95 to 100%
- pest or weed control at 70 g/ha [2, 11]: 95 to 100%
- pest or weed control at 140 g/ha [2, 11]: 95 to 100%
- pest or weed control at 70 g/ha [2, 12]: 95 to 100%
- pest or weed control at 140 g/ha [2, 12]: 95 to 100%
- pest or weed control at 70 g/ha [2, 13]: 95 to 100%
- pest or weed control at 140 g/ha [2, 13]: 95 to 100%
- pest or weed control at 70 g/ha [2, 14]: 95 to 100%
- pest or weed control at 140 g/ha [2, 14]: 95 to 100%
- pest or weed control at 70 g/ha [2, 15]: 85 to 94%
- pest or weed control at 140 g/ha [2, 15]: 95 to 100%
- pest or weed control at 70 g/ha [2, 16]: 95 to 100%
- pest or weed control at 140 g/ha [2, 16]: 85 to 94%
